Reference: PubChem BioAssay AID256 (DTP/NCI, 2004)
Values joined by “and” are separate entries in the source; they are usually repeats but may differ in a detail not shown here. Identical values can stand only once. Inconclusive results and toxic doses are left out. Rule for the calls: active = survival T/C of 150% or more; inactive = T/C below 125% in these data. Non-standard residues stand in square brackets, D forms with d. Residues, ends and D or L forms follow the SMILES beside them. ξ: configuration not given here. *: point of attachment. ξL = CC(C)CC(N)C(=O)O; ClAc = O=C(CCl)*

Test system: CD2F1 mice, L1210 leukemia ip, survival T/C
Assay: NCI In Vivo Anticancer Drug Screen. Data for tumor model L1210 Leukemia (intraperitoneal) in CD2F1 (CDF1) mice
Conditions: endpoint: mean survival time, higher = longer survival
Procedure, shortened: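 Transplantable tumor in mice; compound-treated vs vehicle-treated groups. Read-out = treated/control ratio of the measured endpoint.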

[1] = dose: 100.0 mg/kg/injection, schedule: Q04DX003 (ip), vehicle: saline with Tween-80
[2] = dose: 100.0 mg/kg/injection, schedule: Q01DX009 (ip), vehicle: saline with Tween-80
[3] = dose: 200.0 mg/kg/injection, schedule: Q01DX009 (ip), vehicle: saline with Tween-80
[4] = dose: 400.0 mg/kg/injection, schedule: Q01DX009 (ip), vehicle: saline with Tween-80
[5] = dose: 100.0 mg/kg/injection, schedule: Q04DX003 (ip), vehicle: saline
[6] = dose: 200.0 mg/kg/injection, schedule: Q04DX003 (ip), vehicle: saline
[7] = dose: 100.0 mg/kg/injection, schedule: Q01DX001 (ip), vehicle: saline with Tween-80
[8] = dose: 100.0 mg/kg/injection, schedule: Q01DX009 (ip), vehicle: acetone
[9] = dose: 200.0 mg/kg/injection, schedule: Q01DX009 (ip), vehicle: acetone
[10] = dose: 25.0 mg/kg/injection, schedule: Q01DX009 (ip), vehicle: saline with Tween-80
[11] = dose: 50.0 mg/kg/injection, schedule: Q01DX009 (ip), vehicle: saline with Tween-80
[12] = dose: 12.5 mg/kg/injection, schedule: Q01DX009 (ip), vehicle: other
[13] = dose: 25.0 mg/kg/injection, schedule: Q01DX009 (ip), vehicle: other
[14] = dose: 50.0 mg/kg/injection, schedule: Q01DX009 (ip), vehicle: other
[15] = dose: 100.0 mg/kg/injection, schedule: Q01DX009 (ip), vehicle: other
[16] = dose: 200.0 mg/kg/injection, schedule: Q01DX009 (ip), vehicle: other
[17] = dose: 200.0 mg/kg/injection, schedule: Q04DX003 (ip), vehicle: saline with Tween-80
[18] = dose: 400.0 mg/kg/injection, schedule: Q04DX003 (ip), vehicle: saline with Tween-80
[19] = dose: 100.0 mg/kg/injection, schedule: Q01DX001 (ip), vehicle: saline
[20] = dose: 200.0 mg/kg/injection, schedule: Q01DX001 (ip), vehicle: saline

Measured: T/C

CC1CCc2c(nc(C#N)c(=N)n2O)C1 (stereo unspecified)
inactive: dose: 100.0 mg/kg/injection, schedule: Q04DX003 (ip), vehicle: Klucel (hydroxypropylcellulose) (HPC) 102 % of control | dose: 200.0 mg/kg/injection, schedule: Q04DX003 (ip), vehicle: Klucel (hydroxypropylcellulose) (HPC) 106 % of control | dose: 400.0 mg/kg/injection, schedule: Q04DX003 (ip), vehicle: Klucel (hydroxypropylcellulose) (HPC) 98 % of control

O=S(=O)(F)c1ccccc1
inactive: dose: 25.0 mg/kg/injection, schedule: Q04DX003 (ip), vehicle: saline with Tween-80 95 % of control | dose: 50.0 mg/kg/injection, schedule: Q04DX003 (ip), vehicle: saline with Tween-80 100 % of control | [1] 95 % of control and 97 % of control

CC1=NOC(=O)C1C(C)(C)C1C(=O)ON=C1C (stereo unspecified)
inactive: [2] 107 % of control | [3] 104 % of control | [4] 104 % of control

Nc1ncc2ccccc2c1-c1ccc(NC(=O)CN(CCCl)CCCl)cc1
inactive: dose: 25.0 mg/kg/injection, schedule: Q04DX003 (ip), vehicle: other 106 % of control | dose: 50.0 mg/kg/injection, schedule: Q04DX003 (ip), vehicle: other 106 % of control | dose: 100.0 mg/kg/injection, schedule: Q04DX003 (ip), vehicle: other 103 % of control | dose: 200.0 mg/kg/injection, schedule: Q04DX003 (ip), vehicle: other 109 % of control | dose: 400.0 mg/kg/injection, schedule: Q04DX003 (ip), vehicle: other 112 % of control

O=c1ccn(C2OC(CO)C(F)(CO)C2O)c(=O)[nH]1 (stereo unspecified)
inactive: dose: 12.5 mg/kg/injection, schedule: Q01DX005 (ip), vehicle: water 103 % of control | dose: 25.0 mg/kg/injection, schedule: Q01DX005 (ip), vehicle: water 109 % of control | dose: 50.0 mg/kg/injection, schedule: Q01DX005 (ip), vehicle: water 97 % of control | dose: 100.0 mg/kg/injection, schedule: Q01DX005 (ip), vehicle: water 94 % of control | dose: 200.0 mg/kg/injection, schedule: Q01DX005 (ip), vehicle: water 105 % of control

O=C1C2C3CC4C5C3C1C5C1(OCCO1)C42 (stereo unspecified)
inactive: dose: 25.0 mg/kg/injection, schedule: Q04DX002 (ip), vehicle: saline with Tween-80 107 % of control | dose: 50.0 mg/kg/injection, schedule: Q04DX002 (ip), vehicle: saline with Tween-80 107 % of control | dose: 100.0 mg/kg/injection, schedule: Q04DX002 (ip), vehicle: saline with Tween-80 100 % of control | dose: 200.0 mg/kg/injection, schedule: Q04DX002 (ip), vehicle: saline with Tween-80 107 % of control

CO[C@@H](C=O)O[C@@H](C=O)CO
inactive: dose: 70.0 mg/kg/injection, schedule: Q01DX001 (ip), vehicle: saline 121 % of control | dose: 140.0 mg/kg/injection, schedule: Q01DX001 (ip), vehicle: saline 121 % of control

COCCC1(CN2c3ccccc3Sc3ccccc32)CCN(C)C1 (stereo unspecified)
inactive: [5] 94 % of control | [6] 96 % of control

Nc1ccc(C(=O)O)cc1
inactive: [7] 95 % of control | dose: 200.0 mg/kg/injection, schedule: Q01DX001 (ip), vehicle: saline with Tween-80 100 % of control | dose: 400.0 mg/kg/injection, schedule: Q01DX001 (ip), vehicle: saline with Tween-80 101 % of control

N#CC[CH2][Sn]([Br])([Br])[CH2]CC#N
inactive: dose: 0.78 mg/kg/injection, schedule: Q01DX009 (ip), vehicle: saline 97 % of control | dose: 1.56 mg/kg/injection, schedule: Q01DX009 (ip), vehicle: saline 94 % of control | dose: 3.12 mg/kg/injection, schedule: Q01DX009 (ip), vehicle: saline 92 % of control and 98 % of control | dose: 6.25 mg/kg/injection, schedule: Q01DX009 (ip), vehicle: saline 105 % of control and 107 % of control | dose: 12.5 mg/kg/injection, schedule: Q01DX009 (ip), vehicle: saline 94 % of control and 101 % of control and 107 % of control | dose: 25.0 mg/kg/injection, schedule: Q01DX009 (ip), vehicle: saline 95 % of control and 97 % of control | dose: 50.0 mg/kg/injection, schedule: Q01DX009 (ip), vehicle: saline 89 % of control

C/C(=C\Br)CO
inactive: dose: 50.0 mg/kg/injection, schedule: Q01DX009 (ip), vehicle: acetone 100 % of control | [8] 96 % of control | [9] 96 % of control

CC(C)CC(NC(=O)CCl)C(=O)NCC(=O)O (stereo unspecified) (ClAc-[ξL]-Gly-OH)
inactive: [10] 96 % of control | [11] 96 % of control | [2] 94 % of control

CC[N+](CC)(CCOc1ccc(C(C)(C)CC(C)(C)C)cc1)Cc1ccccc1
inactive: dose: 5.0 mg/kg/injection, schedule: Q04DX003 (ip), vehicle: saline 102 % of control

O=[N+]([O-])c1ccc(N/N=C(/C(=N/Nc2ccc([N+](=O)[O-])cc2)c2ccccc2)c2ccccc2)cc1
inactive: [12] 104 % of control | [13] 101 % of control | [14] 102 % of control | [15] 93 % of control | [1] 93 % of control | [16] 93 % of control | [17] 88 % of control | [18] 88 % of control

Cc1cn(C2CC(OS(C)(=O)=O)C(COC(c3ccccc3)(c3ccccc3)c3ccccc3)O2)c(=O)[nH]c1=O (stereo unspecified)
inactive: dose: 12.5 mg/kg/injection, schedule: Q01DX005 (ip), vehicle: other 95 % of control | dose: 25.0 mg/kg/injection, schedule: Q01DX005 (ip), vehicle: other 90 % of control | dose: 50.0 mg/kg/injection, schedule: Q01DX005 (ip), vehicle: other 91 % of control | dose: 200.0 mg/kg/injection, schedule: Q01DX005 (ip), vehicle: other 91 % of control

Nc1ccc(-c2ccccc2-c2ccccc2)cc1
inactive: [8] 101 % of control | [9] 105 % of control

Cc1c(O)c(Br)c(C)c(O)c1Br (tested in a mixture with another compound)
inactive: [19] 98 % of control | [20] 101 % of control

Oc1cc2ccc3c(c2cc1O)CCc1cn[nH]c1-3
inactive: dose: 25.0 mg/kg/injection, schedule: Q01DX001 (ip), vehicle: saline with Tween-80 104 % of control | dose: 50.0 mg/kg/injection, schedule: Q01DX001 (ip), vehicle: saline with Tween-80 111 % of control | [7] 92 % of control

CC(NC(=O)OCc1ccccc1)C(=O)NCCC(=O)OCc1ccccc1 (stereo unspecified)
inactive: [2] 93 % of control | [3] 95 % of control | [4] 90 % of control

CCC(CC)c1ccccn1
inactive: dose: 100.0 mg/kg/injection, schedule: Q01DX009 (ip), vehicle: saline 115 % of control | [5] 99 % of control | dose: 200.0 mg/kg/injection, schedule: Q01DX009 (ip), vehicle: saline 120 % of control | [6] 99 % of control | dose: 400.0 mg/kg/injection, schedule: Q01DX009 (ip), vehicle: saline 117 % of control | dose: 400.0 mg/kg/injection, schedule: Q04DX003 (ip), vehicle: saline 110 % of control

O=C1c2ccccc2C(=O)N1C1C=CC=CC=C1
inactive: [2] 95 % of control | [1] 104 % of control | [3] 93 % of control | [17] 97 % of control | [4] 96 % of control | [18] 97 % of control

CCOC(=O)CN1C(=O)c2ccccc2C1=O
inactive: [12] 97 % of control | [13] 97 % of control | [14] 98 % of control | [11] 88 % of control | [15] 93 % of control | [2] 103 % of control | [16] 97 % of control | [3] 92 % of control

CCCCCCCCCCCCCCOS(=O)(=O)O
inactive: dose: 37.5 mg/kg/injection, schedule: Q01DX009 (ip), vehicle: saline 93 % of control | dose: 75.0 mg/kg/injection, schedule: Q01DX009 (ip), vehicle: saline 93 % of control

CC(C)(O)CCC1CC1CCC(C)(C)O (stereo unspecified)
inactive: [1] 97 % of control | [17] 89 % of control | [18] 97 % of control

CCOC(=O)C(C)C(C)=O (stereo unspecified)
inactive: [19] 104 % of control | [20] 98 % of control | dose: 400.0 mg/kg/injection, schedule: Q01DX001 (ip), vehicle: saline 101 % of control

CC(C)C(=O)OCCOc1ccccc1
inactive: [2] 100 % of control | [3] 100 % of control | [4] 98 % of control

O=C1CCCC2C3CC(CN12)C1CCCCN1C3 (stereo unspecified)
inactive: [10] 103 % of control | [11] 101 % of control | [2] 100 % of control | [1] 97 % of control
